Results taken from patent US11780893B2, “Kv1.3 blockers” (Zealand Pharma A/S, priority 2019, dated 2023).
Bridge positions count the residues as written; N and C are the ends. Peptide text beside a SMILES is read from it.

What was measured:
[1] = target: T1, human Kv1.3 voltage-gated K+ channel (Homo sapiens, UniProt P22001); test: cell-based; details: inhibition of thallium flux, CHO-DUKX cells with human Kv1.3; read-out: IC50
T1 construct: host or cells: CHO-DUKX

Kv1.1 = target: T2, Kv1.1 (Homo sapiens, UniProt Q09470); test: cell-based; details: for IC50: CHO cells, whole-cell patch clamp, read-out: Potency IC50 (nM) Kv1.1; for Selectivity Kv1.1/Kv1.3: ratio IC50[Kv1.1]/IC50[Kv1.3]
T2 construct: expressed in transfected cells; host or cells: Chinese Hamster Ovary (CHO)
T2 sequence (Q09470 whole entry): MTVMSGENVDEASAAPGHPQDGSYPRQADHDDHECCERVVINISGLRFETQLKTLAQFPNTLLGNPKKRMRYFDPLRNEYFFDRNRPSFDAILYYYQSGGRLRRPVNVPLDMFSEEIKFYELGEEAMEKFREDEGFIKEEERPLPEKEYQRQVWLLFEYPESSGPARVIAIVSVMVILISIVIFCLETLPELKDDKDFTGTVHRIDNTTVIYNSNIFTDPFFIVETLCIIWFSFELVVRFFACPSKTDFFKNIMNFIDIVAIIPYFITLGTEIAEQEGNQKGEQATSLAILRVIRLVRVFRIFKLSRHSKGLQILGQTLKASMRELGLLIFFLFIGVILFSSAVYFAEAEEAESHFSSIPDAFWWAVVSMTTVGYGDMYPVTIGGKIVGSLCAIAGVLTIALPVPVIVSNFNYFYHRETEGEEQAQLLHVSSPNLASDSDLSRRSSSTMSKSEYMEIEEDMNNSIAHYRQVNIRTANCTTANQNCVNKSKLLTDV

Kv1.2 = target: T3, Kv1.2 (Homo sapiens, UniProt P16389); test: cell-based; details: CHO cells, whole-cell patch clamp; read-out: Potency IC50 (nM) Kv1.2
T3 construct: expressed in transfected cells; host or cells: Chinese Hamster Ovary (CHO)
T3 sequence (P16389 whole entry): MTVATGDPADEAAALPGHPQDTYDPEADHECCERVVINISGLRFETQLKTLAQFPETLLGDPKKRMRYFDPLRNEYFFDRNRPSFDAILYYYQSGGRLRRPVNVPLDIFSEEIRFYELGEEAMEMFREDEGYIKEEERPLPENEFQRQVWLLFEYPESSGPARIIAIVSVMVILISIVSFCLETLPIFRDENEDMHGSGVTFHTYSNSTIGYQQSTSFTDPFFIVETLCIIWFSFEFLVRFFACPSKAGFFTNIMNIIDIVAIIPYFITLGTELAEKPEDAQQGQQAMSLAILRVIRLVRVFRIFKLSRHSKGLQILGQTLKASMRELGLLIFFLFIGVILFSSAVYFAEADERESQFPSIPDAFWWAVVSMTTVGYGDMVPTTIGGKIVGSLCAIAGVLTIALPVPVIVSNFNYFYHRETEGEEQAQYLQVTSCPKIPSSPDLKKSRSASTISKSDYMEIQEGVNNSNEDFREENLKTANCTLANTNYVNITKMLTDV

Kv1.3 = target: T4, Kv1.3 (Homo sapiens, UniProt P22001); test: cell-based; details: CHO cells, whole-cell patch clamp; read-out: Potency IC50 (nM) Kv1.3
T4 construct: expressed in transfected cells; host or cells: Chinese Hamster Ovary (CHO)
T4 sequence (P22001 whole entry): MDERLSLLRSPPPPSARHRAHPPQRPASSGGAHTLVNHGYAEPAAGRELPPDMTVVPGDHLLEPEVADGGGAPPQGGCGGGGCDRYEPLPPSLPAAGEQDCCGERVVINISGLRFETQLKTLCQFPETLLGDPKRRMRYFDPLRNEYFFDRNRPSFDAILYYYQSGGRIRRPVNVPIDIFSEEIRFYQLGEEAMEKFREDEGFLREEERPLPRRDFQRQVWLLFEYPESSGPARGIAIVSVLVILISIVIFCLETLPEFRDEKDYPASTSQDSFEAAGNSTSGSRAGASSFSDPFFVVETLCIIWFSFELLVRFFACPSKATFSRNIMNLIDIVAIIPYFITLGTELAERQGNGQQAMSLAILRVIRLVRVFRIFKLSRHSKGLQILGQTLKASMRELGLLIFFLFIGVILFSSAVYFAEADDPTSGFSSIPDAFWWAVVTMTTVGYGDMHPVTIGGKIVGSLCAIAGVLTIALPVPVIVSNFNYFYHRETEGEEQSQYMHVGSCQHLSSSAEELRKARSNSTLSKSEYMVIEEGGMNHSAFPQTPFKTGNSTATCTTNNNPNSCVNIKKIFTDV

Kv1.6 = target: T5, Kv1.6 (Homo sapiens, UniProt P17658); test: cell-based; details: for IC50: CHO cells, whole-cell patch clamp, read-out: Potency IC50 (nM) Kv1.6; for Selectivity Kv1.6/Kv1.3: ratio IC50[Kv1.6]/IC50[Kv1.3]
T5 construct: expressed in transfected cells; host or cells: Chinese Hamster Ovary (CHO)
T5 sequence (P17658 whole entry): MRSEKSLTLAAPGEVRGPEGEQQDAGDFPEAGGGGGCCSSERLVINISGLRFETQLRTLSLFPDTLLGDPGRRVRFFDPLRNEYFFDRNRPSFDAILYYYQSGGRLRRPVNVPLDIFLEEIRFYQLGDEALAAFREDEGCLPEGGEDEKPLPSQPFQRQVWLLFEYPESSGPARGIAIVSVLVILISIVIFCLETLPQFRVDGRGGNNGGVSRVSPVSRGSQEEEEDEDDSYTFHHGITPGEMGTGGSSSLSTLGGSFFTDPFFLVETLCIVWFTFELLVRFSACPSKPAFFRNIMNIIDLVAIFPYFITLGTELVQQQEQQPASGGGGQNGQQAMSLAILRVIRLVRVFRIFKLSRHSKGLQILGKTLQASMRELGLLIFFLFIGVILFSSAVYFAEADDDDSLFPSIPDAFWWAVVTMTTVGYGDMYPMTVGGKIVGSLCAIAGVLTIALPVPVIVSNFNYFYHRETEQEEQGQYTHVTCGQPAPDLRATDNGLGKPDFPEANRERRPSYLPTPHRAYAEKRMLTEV

Rat whole blood = Rat whole blood (Rattus norvegicus, UniProt P15384)
Sequence of Rat whole blood (P15384 whole entry): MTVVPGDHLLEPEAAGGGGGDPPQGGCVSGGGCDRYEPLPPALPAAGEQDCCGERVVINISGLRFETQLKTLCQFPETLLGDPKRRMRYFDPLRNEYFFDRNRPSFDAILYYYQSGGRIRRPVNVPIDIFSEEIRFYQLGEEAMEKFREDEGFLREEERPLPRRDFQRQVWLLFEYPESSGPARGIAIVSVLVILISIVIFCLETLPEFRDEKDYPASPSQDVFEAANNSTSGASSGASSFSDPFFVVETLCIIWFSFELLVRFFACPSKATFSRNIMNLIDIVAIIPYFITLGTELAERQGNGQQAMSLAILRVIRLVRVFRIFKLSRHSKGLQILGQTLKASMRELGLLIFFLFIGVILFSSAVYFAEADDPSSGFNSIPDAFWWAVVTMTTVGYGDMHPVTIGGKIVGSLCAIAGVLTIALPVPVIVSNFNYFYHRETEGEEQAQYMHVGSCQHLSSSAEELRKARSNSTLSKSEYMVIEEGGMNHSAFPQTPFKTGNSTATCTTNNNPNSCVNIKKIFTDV

T1 sequence (P22001 whole entry): as the sequence (P22001 whole entry) above

SMILES	IC50 [1] [nM]	IC50 (Kv1.1) [nM]	Selectivity Kv1.1/Kv1.3 (Kv1.1)	IC50 (Kv1.2) [nM]	IC50 (Kv1.3) [nM]	IC50 (Kv1.6) [nM]	IC50 (Rat whole blood) [nM]	Selectivity Kv1.6/Kv1.3 (Kv1.6)
CC[C@H](C)[C@@H]1NC(=O)[C@H](C)NC(=O)[C@H](CCCCN)NC(=O)[C@H](CC(C)C)NC(=O)[C@@H]2CSSC[C@@H](C(=O)N[C@@H](Cc3ccc(O)cc3)C(=O)N3CCC[C@H]3C(=O)N[C@@H](CCCNC(=N)N)C(N)=O)NC(=O)[C@H](CCCCN)NC(=O)[C@@H]3CSSC[C@H](NC(=O)[C@H](CCC(N)=O)NC(=O)[C@H](C(C)C)NC(=O)[C@H](CO)NC(=O)[C@H](C)NC(=O)[C@H](CO)NC(=O)[C@@H](NC(=O)[C@H](CCCNC(=N)N)NC(=O)[C@H](CCSC)NC(=O)[C@H](CC(=O)O)NC(=O)[C@H](CCSC)NC(=O)[C@@H](N)CC(N)=O)CSSC[C@H](NC(=O)[C@H](CCCCN)NC(=O)CNC(=O)[C@H](Cc4ccccc4)NC(=O)[C@H]([C@@H](C)CC)NC(=O)[C@H](CO)NC(=O)CNC1=O)C(=O)N[C@@H](CCSC)C(=O)N[C@@H](CC(N)=O)C(=O)N[C@@H](CCCCN)C(=O)N[C@@H](CCCCN)C(=O)N3)C(=O)N[C@@H](CCCCN)C(=O)N[C@@H](CCC(N)=O)C(=O)N[C@@H](CCCCN)C(=O)N2 [Compound 28] (H-NMDMRCSASVQCKQKCLKAIGSIFGKCMNKKCKCYPR-NH2; disulfide 6-27, 12-32, 16-34)	0.064	> 3000	>15200	16	0.2	252	≤ 1	–
CC[C@H](C)[C@@H]1NC(=O)[C@H](C)NC(=O)[C@H](CCCCN)NC(=O)[C@H](CC(C)C)NC(=O)[C@@H]2CSSC[C@@H](C(=O)N[C@@H](Cc3ccc(O)cc3)C(=O)N3CCC[C@H]3C(=O)N[C@@H](CCCNC(=N)N)C(N)=O)NC(=O)[C@H](CCCCN)NC(=O)[C@@H]3CSSC[C@H](NC(=O)[C@H](CCC(=O)O)NC(=O)[C@H](C(C)C)NC(=O)[C@H](CO)NC(=O)[C@H](C)NC(=O)[C@H](CO)NC(=O)[C@@H](NC(=O)[C@H](CCCNC(=N)N)NC(=O)[C@H](CCSC)NC(=O)[C@H](CC(=O)O)NC(=O)[C@H](CCSC)NC(=O)[C@@H](N)CC(N)=O)CSSC[C@H](NC(=O)[C@H](CCCCN)NC(=O)CNC(=O)[C@H](Cc4ccccc4)NC(=O)[C@H]([C@@H](C)CC)NC(=O)[C@H](CO)NC(=O)CNC1=O)C(=O)N[C@@H](CCSC)C(=O)N[C@@H](CC(N)=O)C(=O)N[C@@H](CCCCN)C(=O)N[C@@H](CCCCN)C(=O)N3)C(=O)N[C@@H](CC(C)C)C(=O)N[C@@H](CCC(N)=O)C(=O)N[C@@H](CCCCN)C(=O)N2 [Compound 29] (H-NMDMRCSASVECLQKCLKAIGSIFGKCMNKKCKCYPR-NH2; disulfide 6-27, 12-32, 16-34)	0.18	> 3000	>7400	874	0.4	> 3000	≤ 1	>7400
CC[C@H](C)[C@@H]1NC(=O)[C@H](C)NC(=O)[C@H](CCCCN)NC(=O)[C@H](CC(C)C)NC(=O)[C@@H]2CSSC[C@@H](C(=O)N[C@@H](Cc3ccc(O)cc3)C(=O)N3CCC[C@H]3C(=O)N[C@@H](CCCNC(=N)N)C(N)=O)NC(=O)[C@H](CCCCN)NC(=O)[C@@H]3CSSC[C@H](NC(=O)[C@H](CCC(=O)O)NC(=O)[C@H](C(C)C)NC(=O)[C@H](CO)NC(=O)[C@H](C)NC(=O)[C@H](CO)NC(=O)[C@@H](NC(=O)[C@H](CCCNC(=N)N)NC(=O)[C@H](CCSC)NC(=O)[C@H](CC(=O)O)NC(=O)[C@H](CCSC)NC(=O)[C@@H](N)CC(N)=O)CSSC[C@H](NC(=O)[C@H](CCCCN)NC(=O)CNC(=O)[C@H](Cc4ccccc4)NC(=O)[C@H]([C@@H](C)CC)NC(=O)[C@H](CO)NC(=O)CNC1=O)C(=O)N[C@@H](CCSC)C(=O)N[C@@H](CC(N)=O)C(=O)N[C@@H](CCCCN)C(=O)N[C@@H](CCCCN)C(=O)N3)C(=O)N[C@@H](CCCCN)C(=O)N[C@@H](CCC(=O)O)C(=O)N[C@@H](CCCCN)C(=O)N2 [Compound 31] (H-NMDMRCSASVECKEKCLKAIGSIFGKCMNKKCKCYPR-NH2; disulfide 6-27, 12-32, 16-34)	0.075	> 3000	>10800	179	0.28	> 3000	≤ 1	>10800
